Assay: xn = mol fraction of the nth substance listed
Settings: 100 kPa

A viscosity (298.15 K, x2 = 0) of 1.57 mPa·s, a viscosity (303.15 K, x2 = 0) of 1.5 mPa·s and a viscosity (308.15 K, x2 = 0) of 1.35 mPa·s were found for `COCCO` + CCCC[n+]1ccn(C)c1.[Br-] in this work. For the same compound, the viscosity (313.15 K, x2 = 0) was 1.23 mPa·s.
A viscosity (298.15 K, x1 = 0.1002) of 10 mPa·s, a viscosity (298.15 K, x1 = 0.1999) of 34 mPa·s and a viscosity (298.15 K, x1 = 0.3002) of 74.5 mPa·s were found for `CCCC[n+]1ccn(C)c1.[Br-]` + COCCO in this work. The viscosity (298.15 K, x1 = 0.4) was 124 mPa·s, the viscosity (298.15 K, x1 = 0.5) was 179 mPa·s and the viscosity (298.15 K, x1 = 0.5999) was 247 mPa·s. The viscosity (298.15 K, x1 = 0.8) was 527 mPa·s, the viscosity (298.15 K, x1 = 0.8975) was 843 mPa·s and the viscosity (298.15 K, x1 = 1) was 1451 mPa·s. For the same compound, the viscosity (303.15 K, x1 = 0.1002) was 6.65 mPa·s, the viscosity (303.15 K, x1 = 0.1999) was 19.6 mPa·s and the viscosity (303.15 K, x1 = 0.3002) was 41.1 mPa·s. The viscosity (303.15 K, x1 = 0.4) was 68.9 mPa·s, the viscosity (303.15 K, x1 = 0.5999) was 139 mPa·s and the viscosity (303.15 K, x1 = 0.7002) was 192 mPa·s. It also gave a viscosity (303.15 K, x1 = 0.8) of 280 mPa·s, a viscosity (303.15 K, x1 = 0.8975) of 447 mPa·s and a viscosity (303.15 K, x1 = 1) of 837 mPa·s. For the same compound, the viscosity (308.15 K, x1 = 0.1002) was 5.03 mPa·s, the viscosity (308.15 K, x1 = 0.1999) was 13 mPa·s and the viscosity (308.15 K, x1 = 0.3002) was 26.9 mPa·s. The viscosity (308.15 K, x1 = 0.5) was 63.6 mPa·s, the viscosity (308.15 K, x1 = 0.5999) was 86.3 mPa·s and the viscosity (308.15 K, x1 = 0.7002) was 114 mPa·s. For the same compound, the viscosity (308.15 K, x1 = 0.8) was 162 mPa·s, the viscosity (308.15 K, x1 = 0.8975) was 256 mPa·s and the viscosity (308.15 K, x1 = 1) was 506 mPa·s. The viscosity (313.15 K, x1 = 0.1002) was 3.71 mPa·s, the viscosity (313.15 K, x1 = 0.1999) was 8.79 mPa·s and the viscosity (313.15 K, x1 = 0.3002) was 17.5 mPa·s. It also gave a viscosity (313.15 K, x1 = 0.5999) of 55.5 mPa·s, a viscosity (313.15 K, x1 = 0.8) of 106 mPa·s and a viscosity (313.15 K, x1 = 0.8975) of 167 mPa·s. The viscosity (313.15 K, x1 = 1) was 330 mPa·s.

Source: a compilation of properties of binary mixtures (doi:10.1016/j.jtice.2024.105468)
